In patent US7265155B2 (NBS Pharmaceuticals, Inc., priority 1996, dated 2007):
Entries after “also recorded” stand apart in the source; their conditions may differ.

How the values were obtained:
chronic spinalized rat = assay: Spasticity scores elicited by a metal probe in chronic spinally transected rats; format: in vivo; details: 300 mg/kg i.p.
Excerpt: In these studies, male albino Holtzman-derived rats (Harlan Sprague-Dawley Laboratories) weighing 270-530 grams were used as subjects. The animals were housed independently and had continuous access to food and water throughout the experiments.
All procedures were reviewed and approved by the Institutional Animal Care and Use Committee. Animals were anesthetized using a mixture of isoflurane and oxygen at a flow rate of 4 liters/minute.
The rats were then placed in a stereotaxic frame and anesthesia was maintained. An incision was made so that the paraspinal muscles could be retracted and a laminectomy performed between T6-T9. A one- to two-millimeter portion of the spinal cord was removed by evacuation and replaced with Gel foam to reduce bleeding, after which the incision was closed in layers.
Following the transection, rats were placed in a room in which the ambient temperature was raised to about 80° F. with a space heater to maintain body temperature. On the following morning post-surgery, the hindquarters of the spinalized rats were bathed and their urine expressed manually by applying pressure to their bladders. Experiments were conducted between 21 and 28 days after surgery. For the first two weeks, these rats were given 0.25 ml of the antibiotic Sulfatrim Pediatric Suspension orally to prevent bladder infection.
Within approximately two weeks, all animals regained bladder control and were no longer given antibiotic treatment. Advokat, Brain Res. 684: 8 (1995). […]
Initial assessment of spasticity was performed by the subjective scoring method of rating the resulting spasticity response elicited with an innocuous stimulus, i.e., a metal probe, that was pressed against the lower abdomen at four specific sites. The spastic reaction was evaluated for each of the four trials using a scale ranging from zero (no spastic response in all four trials) to four (a maximum, tonic-clonic reaction elicited in all four trials). […] These raw or normalized scores were analyzed with a one-way repeated measures ANOVA.

amygdala-kindled rat = assay: Anticonvulsant activity in the fully amygdala-kindled rat; format: in vivo; details: oral dosing, sixty minutes before stimulation
Method: Isovaleramide was evaluated for its ability to block the expression of amygdala-kindled seizures in fully kindled rats. Isovaleramide was evaluated for its ability to block the kindled motor seizure (seizure scores of 4 and 5) and limbic behavioral seizures (seizure score between 1-3) as well as to affect changes in afterdischarge duration.
Adult, male Sprague-Dawley rats weighing at least 230 gr were implanted with a teflon-coated bipolar electrode sterotaxically placed in the anterior basolateral nucleus of the amygdala under ketamine and xylazine anesthesia. The electrode was implanted at the following coordinates with Bregma as zero: AP-2.2 mm, ML-4.7 mm, DV-8.7 mm. After a one-week recovery period, animals were kindled to Stage 5 behavioral seizures using a stimulus consisting of a 50 Hz, 1 sec train of 1 ms biphasic 150 uA pulses that were delivered once daily until 10 consecutive stage 5 seizures were evoked. Testing of isovaleramide was initiated after a one-week, stimulus-free period. On the compound test day, rats displaying a stage 5 seizure were divided into multiple treatment groups (i.e., vehicle control and isovaleramide treatment). Sixty minutes after oral dosing, individual rats received a 300 uA, 1 sec duration stimulation and their seizure score and afterdischarge duration recorded. Seizure score was classified according to Racine (Electroencephalogr. Clin. Neurophysiol. 32:281-294, (1972): stage 0: no abnormal behavior; stage 1: mouth or facial movements; stage 2: mouth or facial movements and head nodding; stage 3: stage 2 and forelimb clonus; stage 4: stage 3 and rearing; stage 5: stage 4 and falling. A score of 2-3 represents a focal seizure while a score of 4-5 represents secondarily generalized seizures. Afterdischarge duration was the total duration of the amygdala electroencephalogram spikes with an amplitude of at least twice the amplitude of the prestimulus recording and a frequency greater than 1/sec.

[1] = cited from earlier work
[2] = in vivo; cited from earlier work

**Q.** With CC(C)CC(N)=O [Isovaleramide, isovaleramide] as the compound, how does the “overt behavioral toxicity or motor impairment” value (chronic spinalized rat) read?
**A.** No overt behavioral toxicity or motor impairment was observed

**Q.** And the “reduction of spasticity scores” value (chronic spinalized rat; 15, 30, 60 and 120 minutes post-administration)?
**A.** 45-65%

**Q.** What about the “spasticity scores by the next day” value (chronic spinalized rat; 1440 minutes (24 hours)) of the same compound?
**A.** essentially returned to baseline values

**Q.** And the afterdischarge duration (amygdala-kindled rat)?
**A.** decreased

**Q.** And the “generalized seizure responses of fully kindled rats” value (amygdala-kindled rat)?
**A.** effective in reducing in a dose-dependent manner the generalized seizure responses; also recorded: effective in reducing, in a dose-dependent manner, the generalized seizure responses

**Q.** And the mean seizure score (amygdala-kindled rat)?
**A.** decreased

**Q.** And the “acute toxicity in vivo” value [1]?
**A.** low acute toxicity in vivo

**Q.** What about the anxiolytic properties [2] of the same compound?
**A.** clinically useful anxiolytic properties
